In brackets after ≈: the same amount, converted by molar mass. Several values for one entry are separate records, joined by “and”; a condition that tells them apart may be missing. Identical values can stand only once. Entries after “also recorded” stand apart in the source; their conditions may differ. Like-named read-outs stand apart in the source and are kept apart here. Where only a bound is given, the exact number is not on record here.

Details of series [1]: method as in PMID 18346806, PMID 12506184. The note with it: drug linked to PEG40000 vs free drug; cited from earlier work.
Details of series [2]: method as in PMID 18346806, PMID 12506184. Particulars: conjugation to PEG5000; cited from earlier work.
Details of series [3]: method as in earlier work. Particulars: cited from earlier work.
For series [4] the following is noted: relatively alkaline pH of plasma; no reference given; cited from earlier work.
Series [5] in a line: Biodistribution (tissue distribution) after IV injection to mice. The class given is in vivo. The note with it: iv 70 mg/kg. The procedure: For preparation of MTX tissue samples, one volume of tissue homogenate in normal saline was mixed with two volume acetonitrile and centrifuged in 12000 rpm for 5 min. The supernatant was removed and evaporated to dryness under nitrogen gas. The residue was reconstituted in 250 μL mobile phase and was injected to HPLC. For preparation of MTX-PEG5000 tissue samples, one volume of tissue homogenate in normal saline was mixed with two volumes of dichloromethane and shaked for 15 min. After centrifugation (5000 rpm), the lower organic phase was aspirated and dehydrated by Na2SO4 and after dissolving in 200 μL mobile phase, was injected to HPLC. The standard solutions were prepared in triplicate at concentration levels ranging from of 1 to 50 µg/mL for MTX and 2.5 to 500 µg/mL for MTX-PEG5000.
The same HPLC instrument was utilized for analysis of MTX and MTX-PEG tissue samples. The precision and accuracy of the method were examined by adding known amounts of MTX (0. 25, 2.5 and 10 µg/mL) and MTX-PEG5000 (5, 50 and 500 µg/mL) to pool tissue (quality control) samples. The other steps were performed as plasma samples.
IV bolous injections of MTX and MTX-PEG5000 (70 mg/kg) were administered to mice through marginal veins by insulin syringe (gauge 27). At least three mice were sacrificed at each time point. The animals (n = 200) at dosing were in the range of 2-4 weeks of age and their mean weight was 20 ± 5 g. The blood samples were collected at 5, 10, 15, 30, 45, 60, 90, and 120 min intervals for MTX and for at 5, 10, 15, 30, 45, 60, 90, 120, 180, 240, 300, and 360 min intervals for MTX-PEG5000. At each time point, the blood samples were collected from at least three mice and after centrifuging (10000 rpm, for 5 min), the plasma samples were separated and immediately frozen at -20 °C. Then, the mice were cervically dislocated and their organs including heart, liver, spleen, kidney, lung, brain, and small intestine were removed and after washing with normal saline, were dried by facial tissue and exactly weighed. […]

Another series relates to plasma proteins. Particulars: cited from earlier work.
The next series in a line: in vivo. The note with it: mice; for half-life: iv. The procedure:
A portion of 500 μL acetonitrile was added to a mixture of 225 μL plasma and 25 μL MTX or MTX-PEG5000 solution (100 µg/mL) and vortexed. Precipitated proteins were separated by centrifuging the mixture at 12000 rpm for 5 min. The supernatant was evaporated by a Multi-Evaporator (VLM EC 1, Italy) at 50 °C using nitrogen gas. The residue was dissolved in 150 μL mobile phase and injected to HPLC. The standards were prepared in triplicate at eight concentrations ranging from 0.25 to 100 µg/mL for MTX and from 1 to 1000 µg/mL for MTX-PEG5000.
A Knauer HPLC system consisted of a wellchrom pump k-1001, equipped with k-2701, DAD k-2700 detector was used. Chromatography was performed on a PerfectSilTarget® 100 HPLC Column (C8, 150 × 4.6 mm, 5 µm). For analysis of MTX, mobile phase consisted of phosphate-citrate buffer (pH 5): acetonitrile (88:12, v/v) and was delivered isocratically at a flow rate of 1 mL/min.
The column eluent was monitored using UV detector at the wavelength of 302 nm. For analysis of MTX-PEG5000, the mobile phase consisted of phosphate-citrate buffer (pH 5): acetonitrile (55:45, v/v) and was delivered isocratically at a flow rate of 0.5 mL/min. The column eluent was monitored using UV detector at the wavelength of 342 nm.
IV bolous injections of MTX and MTX-PEG5000 (70 mg/kg) were administered to mice through marginal veins by insulin syringe (gauge 27). At least three mice were sacrificed at each time point. The animals (n = 200) at dosing were in the range of 2-4 weeks of age and their mean weight was 20 ± 5 g. The blood samples were collected at 5, 10, 15, 30, 45, 60, 90, and 120 min intervals for MTX and for at 5, 10, 15, 30, 45, 60, 90, 120, 180, 240, 300, and 360 min intervals for MTX-PEG5000. At each time point, the blood samples were collected from at least three mice and after centrifuging (10000 rpm, for 5 min), the plasma samples were separated and immediately frozen at -20 °C. Then, the mice were cervically dislocated and their organs including heart, liver, spleen, kidney, lung, brain, and small intestine were removed and after washing with normal saline, were dried by facial tissue and exactly weighed. Whole removed organs and 0.25 to 0.5 g of liver and small intestine were minced and homogenized in a certain volume of normal saline using homogenizer IKA basic T25 (Germany). The organs were collected from MTX injected animals (10, 60 and 120 min for all organs and 5, 10, 30, 60 and 120 for liver tissue) and at 2, 6, 12, 24, and 48 h for mice administered by MTX-PEG5000.
The logarithm of plasma concentrations of MTX and MTX-PEG5000 were plotted vs. time. […] The pharmacokinetic parameters were obtained by fitting data to two-compartmental model equation (C = Ae^-αt + Be^-βt) and noncompartmental model using Excel 2010 (33).

Details of series [6]: method as in PMID 18346806. Particulars: cited from earlier work.
Where [7] appears, read: iv 70 mg/kg, two-compartmental model, n = 3.
Setting [8] is: iv 70 mg/kg, two-compartmental model, n = 3, 70 mg/kg.

In the case of `CC[C@@]1(O)C(=O)OCc2c1cc1n(c2=O)Cc2cc3ccccc3nc2-1` [Campthotecin], the “T1/2 β” value in series [1] is 1320 min.
Take `Nc1ccn([C@@H]2O[C@H](CO)[C@@H](O)C2(F)F)c(=O)n1` [Gemcitabine]: in series [2], the AUC was 118.55 µg·min/mL, the “T1/2 α” value was 59.4 min, the “T1/2 β” value is 673.8 min and the clearance is 0.654 mL/min.
Take `CN(Cc1cnc2nc(N)nc(N)c2n1)c1ccc(C(=O)N[C@@H](CCC(=O)O)C(=O)O)cc1` [MTX, Methotrexate]: the Plasma half-life in series [3] was 90 to 210 min. For the same molecule, the lipophilicity (logP) in series [4] is on record as -1.4. Also, the “Time after injection up to which measurable in tissues” value in series [5] is no more than 2 h. In addition, the “Accumulation in organs (liver, intestine)” value in series [5] (70 mg/kg) was “accumulated in liver immediately after its distribution phase (10 min) and then redistributed to small intestine (60 min); also recorded: high and fast accumulation in liver”. Also, the “Presence in the brain” value in series [5] (brain) is “no detectable amount of drug was found in the brain”. Further, in the series on plasma proteins, the Protein binding was 30-50%. Further, the “Portion of the drug bound to plasma proteins” value in the series with plasma proteins (no reference given) is 50%. Also, in the series “in vivo” (iv 70 mg/kg, n = 3), the AUMC was found to be 24.63 ± 2.84 mg.mL-.min2 and the Vc worked out at 94.025 ± 6.814 mL. The area under the curve (AUC) in the series “in vivo” (iv 70 mg/kg, n = 3, 70 mg/kg) was 2.64 mg·min/mL and 2.642 mg·min/mL and 2.642 ± 0.190 mg·min/mL. In the series “in vivo” (setting [7]), the K10 turned out to be 0.236 ± 0.043 min⁻¹, the K12 came out at 0.050 ± 0.020 min⁻¹ and the K21 amounted to 0.036 ± 0.002 min⁻¹. In the series “in vivo” (setting [8]), the “T1/2a (distribution half-life, T1/2 α)” value is 2.445 ± 0.549 min and the “T1/2b (elimination half-life, T1/2 β)” value stood at 24.328 ± 0.657 min. Besides, in the series “in vivo” (mouse, plasma, 70 mg/kg, two-compartmental model, n = 3, read-out: T1/2a (distribution half-life, T1/2 α)), the half-life is 2.45 min. In addition, the half-life in “in vivo” (mouse, plasma, 70 mg/kg, two-compartmental model, n = 3, read-out: T1/2b (elimination half-life, T1/2 β)) turned out to be 24.3 min. Besides, in “in vivo” (mouse, plasma, iv 70 mg/kg, n = 3, read-out: CLs (systemic clearance)), the clearance was determined as 22.4 ± 5.46 mL/min. Besides, the MRT in “in vivo” (mouse, plasma, iv 70 mg/kg, noncompartmental model, n = 3, read-out: MRT (mean residence time) (converted)) is 9.3 min. Further, in series [6] (pH4), the “Solubility in aqueous solution” value is given as 0.08 mg/mL (≈ 0.176 mM). The “Solubility in aqueous solution” value in series [6] (pH8) was 58.17 mg/mL (≈ 128 mM).

Broadly, the AUC is concentration integrated over time. One may read the clearance as the volume of plasma or blood freed of the substance per unit of time. The term logP denotes a log measure of how a compound divides between an organic and an aqueous phase. One may read the MRT as a mean duration of stay, worked out from the concentration-time curve.

The record behind these values is PMC6447882, “Pharmacokinetics and Biodistribution of Pegylated Methotrexate after IV Administration to Mice” (Iranian Journal of Pharmaceutical Research : IJPR, 2018).
